Assay results taken from ChEMBL document CHEMBL3431459, “Roche carnitine palmitoyltransferase modulator screening data (supplementary data associated with the publication CHEMBL2216752)”.
In brackets after ≈: the same amount, converted by molar mass.

Assays:
[1] = SUPPLEMENTARY: Lyophilisation Solubility Assay (LYSA); format: physicochemical; settings: read-out: Kinetic_solubility
[2] = target: T1, Carnitine O-palmitoyltransferase 1, liver isoform (Rattus norvegicus, UniProt P32198); assay: (§1) SUPPLEMENTARY: Inhibition of Carnitine palmitoyltransferase 1, liver isoform
T1 sequence (P32198 whole entry): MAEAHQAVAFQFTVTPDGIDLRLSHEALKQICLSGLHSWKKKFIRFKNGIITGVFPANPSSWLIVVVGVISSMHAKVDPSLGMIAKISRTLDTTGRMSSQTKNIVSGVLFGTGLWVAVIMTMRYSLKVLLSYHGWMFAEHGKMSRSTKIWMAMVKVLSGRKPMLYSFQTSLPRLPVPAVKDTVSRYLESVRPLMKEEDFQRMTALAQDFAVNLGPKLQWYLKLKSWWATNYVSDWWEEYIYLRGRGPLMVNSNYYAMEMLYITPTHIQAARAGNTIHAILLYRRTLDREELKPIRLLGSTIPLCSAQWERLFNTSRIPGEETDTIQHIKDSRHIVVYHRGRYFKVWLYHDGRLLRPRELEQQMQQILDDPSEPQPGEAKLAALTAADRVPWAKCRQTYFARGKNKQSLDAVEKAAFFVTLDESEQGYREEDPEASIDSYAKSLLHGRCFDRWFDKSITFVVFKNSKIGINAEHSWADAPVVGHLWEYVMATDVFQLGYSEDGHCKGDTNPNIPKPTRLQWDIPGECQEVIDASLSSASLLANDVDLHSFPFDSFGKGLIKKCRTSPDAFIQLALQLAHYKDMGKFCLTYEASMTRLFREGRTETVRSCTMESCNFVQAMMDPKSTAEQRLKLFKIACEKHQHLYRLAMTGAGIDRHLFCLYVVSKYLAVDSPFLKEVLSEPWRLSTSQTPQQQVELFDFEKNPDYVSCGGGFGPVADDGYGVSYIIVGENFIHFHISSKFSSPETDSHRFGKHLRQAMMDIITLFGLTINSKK

[3] = target: T2, Carnitine O-palmitoyltransferase 1, liver isoform (Homo sapiens, UniProt P50416); assay: as §1
T2 sequence (P50416 whole entry): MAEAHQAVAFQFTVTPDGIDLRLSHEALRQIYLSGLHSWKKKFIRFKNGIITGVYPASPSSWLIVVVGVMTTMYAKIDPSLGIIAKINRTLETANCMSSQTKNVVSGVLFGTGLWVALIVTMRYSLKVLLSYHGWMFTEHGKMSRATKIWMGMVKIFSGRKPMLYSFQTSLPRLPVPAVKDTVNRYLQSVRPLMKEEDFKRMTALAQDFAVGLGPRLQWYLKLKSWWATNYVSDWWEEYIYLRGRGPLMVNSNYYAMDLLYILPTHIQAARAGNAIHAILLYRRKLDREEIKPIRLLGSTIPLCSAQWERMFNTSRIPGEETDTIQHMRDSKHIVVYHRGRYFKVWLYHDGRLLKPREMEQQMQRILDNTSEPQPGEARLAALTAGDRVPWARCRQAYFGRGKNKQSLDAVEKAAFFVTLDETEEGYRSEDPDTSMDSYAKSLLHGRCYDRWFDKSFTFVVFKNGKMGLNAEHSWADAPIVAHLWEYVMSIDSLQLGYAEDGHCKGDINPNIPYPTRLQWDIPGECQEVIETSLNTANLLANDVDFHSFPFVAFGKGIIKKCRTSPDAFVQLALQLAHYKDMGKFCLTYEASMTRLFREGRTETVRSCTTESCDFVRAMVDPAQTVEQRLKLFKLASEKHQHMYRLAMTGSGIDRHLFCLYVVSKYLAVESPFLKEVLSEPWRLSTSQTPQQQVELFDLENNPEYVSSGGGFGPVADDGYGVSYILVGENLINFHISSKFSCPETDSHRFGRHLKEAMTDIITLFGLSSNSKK

[4] = target: T3, Carnitine O-palmitoyltransferase 2, mitochondrial (Rattus norvegicus, UniProt P18886); assay: (§2) SUPPLEMENTARY: Inhibition of Carnitine palmitoyltransferase 2
T3 sequence (P18886 whole entry): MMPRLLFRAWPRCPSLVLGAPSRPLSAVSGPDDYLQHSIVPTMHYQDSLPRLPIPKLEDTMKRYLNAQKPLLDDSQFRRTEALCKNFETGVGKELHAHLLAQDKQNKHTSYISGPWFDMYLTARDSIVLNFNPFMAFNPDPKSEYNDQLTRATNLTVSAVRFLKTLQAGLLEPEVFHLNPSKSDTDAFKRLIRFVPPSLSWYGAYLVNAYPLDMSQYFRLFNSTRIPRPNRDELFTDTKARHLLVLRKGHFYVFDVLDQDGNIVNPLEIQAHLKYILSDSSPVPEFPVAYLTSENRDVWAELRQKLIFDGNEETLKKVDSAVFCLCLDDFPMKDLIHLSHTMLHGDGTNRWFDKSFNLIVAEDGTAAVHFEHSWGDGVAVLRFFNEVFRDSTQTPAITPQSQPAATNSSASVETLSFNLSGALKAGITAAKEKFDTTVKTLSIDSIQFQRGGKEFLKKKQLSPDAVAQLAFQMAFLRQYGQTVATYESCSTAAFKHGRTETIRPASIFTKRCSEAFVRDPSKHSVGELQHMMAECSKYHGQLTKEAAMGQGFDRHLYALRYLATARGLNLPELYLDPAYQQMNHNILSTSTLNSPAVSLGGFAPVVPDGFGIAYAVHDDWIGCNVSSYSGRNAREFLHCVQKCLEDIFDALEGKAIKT

[5] = target: T4, Carnitine O-palmitoyltransferase 2, mitochondrial (Homo sapiens, UniProt P23786); assay: as §2
T4 sequence (P23786 whole entry): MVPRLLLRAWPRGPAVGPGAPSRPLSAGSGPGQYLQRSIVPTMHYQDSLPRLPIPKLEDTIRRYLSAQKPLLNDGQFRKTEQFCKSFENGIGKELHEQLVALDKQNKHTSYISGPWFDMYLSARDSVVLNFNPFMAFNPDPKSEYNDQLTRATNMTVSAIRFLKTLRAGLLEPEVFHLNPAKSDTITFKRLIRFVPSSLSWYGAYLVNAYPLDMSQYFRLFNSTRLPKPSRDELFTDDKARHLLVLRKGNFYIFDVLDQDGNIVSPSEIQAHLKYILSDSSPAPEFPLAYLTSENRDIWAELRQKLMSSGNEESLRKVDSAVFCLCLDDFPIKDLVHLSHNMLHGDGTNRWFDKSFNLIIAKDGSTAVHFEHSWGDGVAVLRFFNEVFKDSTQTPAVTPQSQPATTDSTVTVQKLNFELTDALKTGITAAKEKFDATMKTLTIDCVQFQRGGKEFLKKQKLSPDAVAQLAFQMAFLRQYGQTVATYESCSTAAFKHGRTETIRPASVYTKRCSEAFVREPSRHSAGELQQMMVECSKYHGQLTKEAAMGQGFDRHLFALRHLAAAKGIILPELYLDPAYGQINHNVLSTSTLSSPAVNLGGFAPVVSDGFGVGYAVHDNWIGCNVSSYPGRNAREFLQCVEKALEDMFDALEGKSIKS

[6] = SUPPLEMENTARY: PAMPA permeability assay; format: physicochemical; settings: read-out: Permeability
[7] = SUPPLEMENTARY: Lipophilicity (log D) Determination by high-throughput shake-flask; format: physicochemical; settings: octanol/water
[8] = target: T5, Carnitine O-palmitoyltransferase 1, muscle isoform (Homo sapiens, UniProt Q92523); assay: SUPPLEMENTARY: Inhibition of Carnitine palmitoyltransferase 1, muscle isoform; set-up: species or system Muscle tissue
T5 sequence (Q92523 whole entry): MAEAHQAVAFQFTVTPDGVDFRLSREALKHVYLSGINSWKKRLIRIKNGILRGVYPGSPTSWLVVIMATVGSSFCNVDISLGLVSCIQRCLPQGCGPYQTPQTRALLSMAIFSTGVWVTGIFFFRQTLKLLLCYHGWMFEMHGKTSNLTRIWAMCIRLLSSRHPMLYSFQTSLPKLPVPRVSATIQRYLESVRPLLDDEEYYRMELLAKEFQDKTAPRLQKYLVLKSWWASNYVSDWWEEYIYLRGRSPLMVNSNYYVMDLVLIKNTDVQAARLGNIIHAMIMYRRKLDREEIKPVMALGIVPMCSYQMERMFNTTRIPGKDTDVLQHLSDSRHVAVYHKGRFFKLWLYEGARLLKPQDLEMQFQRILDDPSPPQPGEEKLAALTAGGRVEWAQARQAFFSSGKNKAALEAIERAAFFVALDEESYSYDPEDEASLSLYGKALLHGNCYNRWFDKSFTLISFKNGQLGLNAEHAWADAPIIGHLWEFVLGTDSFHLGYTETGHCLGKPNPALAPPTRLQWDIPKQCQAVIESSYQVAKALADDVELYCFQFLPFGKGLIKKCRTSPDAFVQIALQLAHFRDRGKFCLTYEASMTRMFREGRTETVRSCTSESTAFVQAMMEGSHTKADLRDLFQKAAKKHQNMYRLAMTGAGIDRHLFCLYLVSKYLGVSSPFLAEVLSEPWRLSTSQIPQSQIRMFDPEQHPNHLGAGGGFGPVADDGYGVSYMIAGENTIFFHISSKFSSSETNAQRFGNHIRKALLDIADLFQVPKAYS

Row | Compound | solubility kinetic [1] [µg/mL] | IC50 [2] [nM] | IC50 [3] [nM] | IC50 [4] [nM] | IC50 [5] [nM] | Papp [6] [×10⁻⁶ cm/s] | logD [7] | IC50 [8] [nM]
1 | COc1ccc(Cl)cc1S(=O)(=O)N1CCOc2c(F)cc(C(=O)Nc3nc(CC(=O)O)cs3)cc21 | 10 (≈ 18.5 µM) | 33.8 | 23.9 | > 100000 | > 100000 | 2.43 | 0.28 | 741
2 | COc1ccc(Cl)cc1S(=O)(=O)N1CC(C(=O)O)Cc2ccc(C(=O)Nc3ccccc3)cc21 (stereo not given) | 203 (≈ 405 µM) | 14 | 20.8 | > 100000 | > 100000 | 1.83 | 0.31 | 5900
3 | O=C1COc2cc(C#C[C@H]3CCCCN3C(=O)COc3ccccc3)ccc2N1 | 2 (≈ 5.12 µM) | 205 | 154 | > 100000 | > 100000 | 1.09 | 3.51 | > 100000
4 | O=C(COc1ccccc1)N1CCCC[C@@H]1c1nnn(-c2ccc3[nH]ccc3c2)n1 | < 1 | 162 | 130 | > 100000 | 47300 | 2.27 | 3.88 | > 100000
5 | N#Cc1ccc(C#C[C@H]2CCCCN2C(=O)COc2ccccc2)cc1 | 1 (≈ 2.9 µM) | 190 | 164 | > 100000 | > 100000 | 0.61 | 3.56 | > 100000
6 | COc1ccc(Cl)cc1Cc1cn(C)c2ccc(C(=O)Nc3ccc(CC(=O)O)cc3)cc12 | 44 (≈ 95 µM) | 119 | 130 | > 100000 | > 100000 | 0.86 | 2.7 | 2470
7 | COc1ccc(Cl)cc1S(=O)(=O)N1COc2ccc(C(=O)Nc3ccc(C(=O)O)cc3)cc21 | 13 (≈ 26.6 µM) | 40.7 | 56.1 | 6560 | 2890 | 2.93 | 0.65 | 5490
8 | COc1ccc(Cl)cc1S(=O)(=O)Nc1cc(C(=O)Nc2ccc(C(=O)O)cc2)cn(C)c1=O | 13 (≈ 26.4 µM) | 80.4 | 127 | 42400 | 3230 | 0.27 | -0.34 | > 100000
9 | O=C(COc1ccccc1)N1CCCC[C@@H]1c1nc(-c2ccc(F)c(F)c2)n[nH]1 | 77 (≈ 193 µM) | 598 | 239 | > 100000 | > 100000 | 1.72 | 2.77 | > 100000
10 | CC1(C)NC(=O)N(c2ccc(Cl)c(-c3nc([C@H]4CCCCN4C(=O)COc4ccccc4)no3)c2)C1=O | < 1 | 247 | 91.2 | 21700 | 6090 | 0.49 | 3.29 | 22700
